Where two headings read alike, the source gives them in different places.
Key:
neonatal subject = experiment: Clinical assessments of the neonatal subject (physical/neurologic exam, CHOP INTEND, HINE-2, Bayley-4, OrSAT, ultrasound); format: in vivo, human; conditions: for CHOP INTEND: highest possible score 64; for Oral-motor assessment (OrSAT): maximum score 7
Method: Following birth, the neonatal subject, approximately one week and again at approximately six weeks of age, was assessed using the Hammersmith Infant Neurological Exam (HINE), Bayley Scales of Infant and Toddler Development, 4th edition (“Bayley™-4), the Children's Hospital of” Philadelphia Infant Test of Neuromuscular Disorders (CHOP INTEND), the Oral and Swallowing Abilities Tool (OrSAT), respiratory inductance plethysmography (RIP), a complete physical examination, anthropometric measurements (including vital signs, length, weight, head circumference and chest circumference), nerve conduction testing (specifically compound muscle action potential (CMAP) and motor unit number estimation (MUNE)), an ultrasound of the brain and muscles, blood and urine collection for CBC, CMP, U/A, and risdiplam PK/PD. The CBC, CMP, and U/A could be repeated at six weeks if the neonatal subject had not initiated any SMN-directed therapies, if there was a clinical indication upon physical examination, or if the one-week labs had clinically significant abnormal results.
The maximum score for the HINE-2 is 26 points, with a higher score reflecting a higher function, respectively.
Bayley™-4 is a comprehensive assessment tool for determining developmental delays in high-risk neonatal subjects. See Bayley & Aylward (2019) Bayley Scales of Infant and Toddler Development (4th ed.) technical manual. Bloomington, MN: NCS Pearson. Bayley™-4 scores from an assessment of early childhood development. Specifically, Bayley™-4 tests developmental skills such as cognitive, language, and motor skills of the neonatal subject. The scores represent how well the neonatal subject performed in these areas as compared to a group of neonatal subjects in the same age range. The Bayley™-4 mean standard score is 100 and the standard deviation is 15.
In Table 6, “CHOP INTEND” refers to a test that provides information about how strong the neonatal subject's muscles are and how well the neonatal subject can control his/her muscles. During the CHOP INTEND examination, a health care provider measures 16 types of muscle movements, which include head control (keeping the head upright), elbow flexion and knee extension (bending the joints), arm and leg mobility, and handgrip. […] All of the CHOP INTEND scores add up to one total score, with the highest possible score for the CHOP INTEND test being 64. With a score of 50 at 6 weeks and a score of 55 at 18 weeks, the neonatal subject was considered to be normal.
“OrSAT” or “Oral and Swallowing Abilities Tool” is a tool specifically designed to record structured information on different aspects related to oral, swallowing and feeding abilities in patients with type 1 SMA. See Berti (2022) Arch. Dis. Child. archdischild-2022-323899. Specifically, OrSAT includes several questions, where the responses are graded using a scoring system: each item is scored as 0 or 1 depending if the patient is able or unable to perform a given activity. Since some items are age-dependent, the number of items and the maximal score increases with an increasing age. If the neonatal subject younger than 6 months of age who cannot be assessed on swallowing semisolids or solids, the maximum score is 7, whereas if the neonatal subject is between 6 and 9 months of age, who can be assessed on this criteria, the maximum score is 10. If the neonatal subject is 10 months of age or older and can be assessed for all food consistencies, including solids, the maximum total score is 12. See Berti (2021) J. Neuromuscul. Dis. 8(4):589-601.
Muscle ultrasound was performed using a 11-mHz-linear array transducer (60 mm width) in B-mode (GE Vivid E95; GE, Chicago, IL, USA) to evaluate for muscle fasciculation in the right and left biceps, the abductor digiti minimi muscle, the quadriceps, the transverse abdominal muscle, the gastrocnemius-soleus, the lumbar paraspinals and the tongue. Thickness of the quadriceps muscle was measured. […]

rabbit fetuses = conditions: cited from earlier work
neurofilament = experiment: Neurofilament light and phosphorylated heavy chain ELISA on plasma and serum; format: in vivo, human
Method: Neurofilament light and phosphorylated heavy chain assays were performed on plasma and serum samples using an ELISA assay, following the manufacturer's instructions (ProteinSimple, San Jose, CA, USA). Two runs were performed, each run having 3 aliquots run on the same plate and the mean value utilized. The average of the two runs was used for interpretation and in constructing FIG. 3 and FIG. 4.
The x-axis in FIG. 3 and FIG. 4 is associated with the date. The x-axis in FIG. 3 includes both prenatal dates (e.g., 32.5 WG or weeks gestation-37.6 WG) and postnatal dates or “PND” (e.g., d0-d43, referring to days post-birth of the fetal subject as the neonatal subject). The y- axis in FIG. 3 and FIG. 4 is associated with the mean neurofilament levels in blood (measured in pg/mL).
Further, in FIG. 3 and FIG. 4, “NF-L” refers to “neurofilament light chain,” which is a neuronal protein highly expressed in large caliber myelinated axons. NF-L levels increase in cerebrospinal fluid and blood proportionally to the degree of axonal damage in a variety of neurological disorders, including inflammatory, neurodegenerative, traumatic and cerebrovascular diseases. See Gaetani (2019) J. Neurol. Neurosurg. Psychiatry. 90(8):870-881. Additionally, “pNF-H” refers to the phosphorylated neurofilament heavy subunit (or phosphorylated NF-H). Further, as shown in FIG. 3 and FIG. 4, “Ser” refers to blood serum and “Pla” refers to blood plasma.

Ultrasound studies Neurosonogram Muscle (neonatal subject; 1 week): normal
General Physical Exam (neonatal subject; 1 week to 18 weeks): Heart murmur (VSD)
Mental status (neonatal subject; 2 weeks to 2 months): Somnolent and fussy
Ultrasound studies Neurosonogram Muscle (neonatal subject; 6 weeks): normal
Ultrasound studies Neurosonogram Muscle (neonatal subject; 18 weeks): normal
APGAR score (neonatal subject; 1 minute): APGAR scores: 7
APGAR score (neonatal subject; 5 minutes): minute), 8 (5 minutes)
Growth (weight gain) (neonatal subject; after 2 months): Normal after
Mental status (neonatal subject; after 2 months): Normal after
General Physical Exam (neonatal subject; birth to 1 week): Respiratory distress
Mental status (neonatal subject; birth to 1 week): Normal
Ultrasound studies Neurosonogram Muscle (neonatal subject; birth to 1 week (DOL2)): normal DOL2
Structure (SMILES): Cc1cn2nc(-c3cc(=O)n4cc(N5CCNC6(CC6)C5)ccc4n3)cc(C)c2n1 [risdiplam, 7-(4,7-diazaspiro[2.5]octan-7-yl)-2-(2,8-dimethylimidazo[1,2-b]pyridazin-6-yl)-4H-pyrido[1,2-a]pyrimidin-4-one]
Neurologic Exam (neonatal subject; 1 week to 18 weeks): Normal, age-appropriate tone, posture,
CHOP INTEND (neonatal subject; 1 week): 46
Oral-motor assessment (OrSAT) (neonatal subject; 1 week): 7
CHOP INTEND (neonatal subject; 6 weeks): 50
Oral-motor assessment (OrSAT) (neonatal subject; 6 weeks): 7
Bayley-4 Adaptive Behavior (neonatal subject; 18 weeks): Behavior: 89
Bayley-4 Cognitive (neonatal subject; 18 weeks): Cognitive: 95
Bayley-4 Communication (neonatal subject; 18 weeks): Communication: 103
Bayley-4 Social (neonatal subject; 18 weeks): Social: 95
Oral-motor assessment (OrSAT) (neonatal subject; 18 weeks): 7
HINE-2 (neonatal subject; 18 weeks, maximum score 26): 8
Bayley-4 Motor (neonatal subject; 18 weeks, mean standard score 100, SD 15): Motor: 101
Neurologic Exam (neonatal subject; birth to 1 week): Normal, age- appropriate
Findings in rabbit fetuses (rabbit fetuses; at about 12 mg/kg/day): hydrocephalus, an abnormally small gall bladder, and lung variations
Findings in rabbit fetuses (rabbit fetuses; dams treated at about 1 mg/kg/day to about 12 mg/kg/day): reduced weight gain and cranium or brain variations
pNF-H level in neonatal subject compared to the carrier (neurofilament; at delivery): about 10 fold
NF-L levels (neurofilament; carrier and neonatal subject, FIG. 3 and FIG. 4): low, with little change
Increase of post-partum pNF-H levels (neurofilament; carrier, 6-week observation period): approximately 2 fold
pNF-H level relative to lowest value in NURTURE study participants (neurofilament; neonatal subject): 35%
pNF-H level relative to NURTURE median value (20881) (neurofilament; neonatal subject versus pre-symptomatic SMN2X2 infants under 6 weeks): 1.4%
pNF-H level (neurofilament; neonatal subject, data point of FIG. 4 correlated to FIG. 5): 293 pg/mL

— patent US20240173325A1, “METHODS FOR TREATING SPINAL MUSCULAR ATROPHY” (Genentech, Inc., priority 2022, published 2024)
